Tests used:
WT-EGFR (A431 cell line) = WT-EGFR (A431 cell line) (Homo sapiens, UniProt P00533); assay: A431 cell proliferation (Cell Titer Glo), WT-EGFR; format: cell-based; conditions: A431 cells, 72 hours
Procedure: To determine the ability of Compound No. 6 to target wild type HER2, wild type EGFR, and relevant mutants of each, a panel of BaF3 cell lines and the A431 cell line were dosed and assessed in cell proliferation assays. The BaF3 parental cell line is normally dependent on IL-3 for proliferation, but when transformed with active tyrosine kinase can grow in the absence of IL-3. However, when transformed kinase activity is inhibited by a targeted small molecule the associated proliferation is reduced in proportion to the extent of inhibition. […] Proliferation was assessed using the Cell Titer Glo cell proliferation kit (Promega # G7573). […] Cell Titer Glo was added to plated cells at 15 ul per well, the plate was shaken for 20 minutes at room temperature, and luminescence was measured using Victor X3 Multimode plate reader (Perkin Elmer), Cell Titer Glo readings were taken following 72 hours (T72) after addition of Compound No. 6. […]
The BaF3 parental cell line is normally dependent on IL-3 for proliferation, but when transformed with active tyrosine kinase can grow in the absence of IL-3. […] Proliferation was assessed using the Cell Titer Glo cell proliferation kit (Promegaf# G7573). […] Cell Titer Glo was added to plated cells at 15 ul per well, the plate was shaken for 20 minutes at room temperature, and luminescence was measured using Victor X3 Multimode plate reader (Perkin Elmer). […]

[1] = system: CUTO-14 tumors (EGFR-Exon 20 insertion ASV); assay: Tumor growth in athymic nude mice bearing CUTO-14 tumors; format: in vivo
Procedure: To determine the ability of Compound No. 6 to inhibit tumor growth and induce tumor regression in vivo, a mouse tumor model containing the EGFR-Exon 20 insertion ASV (CUTO-14) mutation was used. Athymic nude mice from Charles River Labs bearing CUTO-14 tumors were treated with Compound No. 6 at either 50 mg/kg once per day (QD) or 25 mg/kg twice per day (BID) over the indicated time course, and tumor volume was measured. Tumor volume was analyzed to assess the effect of Compound No. 6 on tumor growth and regression.

Sequence of WT-EGFR (A431 cell line) (P00533 25-1210): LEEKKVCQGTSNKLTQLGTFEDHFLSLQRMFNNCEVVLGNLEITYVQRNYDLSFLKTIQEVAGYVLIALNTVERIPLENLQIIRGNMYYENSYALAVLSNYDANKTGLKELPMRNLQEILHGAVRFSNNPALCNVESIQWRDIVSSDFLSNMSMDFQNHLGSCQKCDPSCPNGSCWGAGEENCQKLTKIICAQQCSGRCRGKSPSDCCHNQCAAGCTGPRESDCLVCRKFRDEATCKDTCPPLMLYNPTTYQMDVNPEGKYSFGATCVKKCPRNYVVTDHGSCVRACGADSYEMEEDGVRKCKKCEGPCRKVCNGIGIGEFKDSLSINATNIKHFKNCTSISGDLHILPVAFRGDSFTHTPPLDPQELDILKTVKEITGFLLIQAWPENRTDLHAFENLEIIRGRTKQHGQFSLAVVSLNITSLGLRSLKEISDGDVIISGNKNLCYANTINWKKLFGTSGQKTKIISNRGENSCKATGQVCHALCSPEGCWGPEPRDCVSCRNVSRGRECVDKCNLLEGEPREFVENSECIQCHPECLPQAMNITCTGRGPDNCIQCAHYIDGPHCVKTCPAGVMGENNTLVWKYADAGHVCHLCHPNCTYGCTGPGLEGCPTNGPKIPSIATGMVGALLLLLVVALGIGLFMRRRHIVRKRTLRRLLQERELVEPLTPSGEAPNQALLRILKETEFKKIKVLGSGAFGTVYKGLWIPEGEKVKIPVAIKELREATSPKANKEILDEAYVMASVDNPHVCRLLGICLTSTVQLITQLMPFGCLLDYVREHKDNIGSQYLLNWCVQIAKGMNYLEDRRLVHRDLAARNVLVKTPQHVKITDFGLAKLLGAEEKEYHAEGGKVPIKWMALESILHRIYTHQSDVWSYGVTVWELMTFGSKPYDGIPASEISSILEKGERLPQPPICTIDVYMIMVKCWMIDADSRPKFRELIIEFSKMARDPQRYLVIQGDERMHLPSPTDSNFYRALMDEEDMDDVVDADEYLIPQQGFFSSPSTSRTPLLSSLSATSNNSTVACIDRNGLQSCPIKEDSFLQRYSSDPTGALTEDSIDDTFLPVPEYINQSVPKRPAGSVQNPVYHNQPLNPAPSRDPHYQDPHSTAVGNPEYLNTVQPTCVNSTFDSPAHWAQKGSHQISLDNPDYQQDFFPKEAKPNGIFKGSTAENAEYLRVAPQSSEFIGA

C=CC(=O)Nc1cc2c(Nc3cc(Cl)c(OCc4cccc(F)c4)cc3F)ncnc2cc1OCCN1CCOCC1 [compound 6]
IC50 (WT-EGFR (A431 cell line)): > 0.1 µM
Tumor volume ([1]; 25 mg/kg twice per day (BID), FIG. 32): decreased
Tumor volume ([1]; 50 mg/kg once per day (QD), FIG. 32): decreased

C=CC(=O)Nc1cc2c(Nc3ccc(OCc4ccccn4)c(Cl)c3)ncnc2cc1OCCN1CCOCC1 [compound 8]
IC50 (WT-EGFR (A431 cell line)): > 0.1 µM
Tumor volume ([1]; 30 mg/kg once per day (QD), FIG. 31): decreased
Tumor volume ([1]; 50 mg/kg twice per day (BID), FIG. 31): decreased

Source: patent US11034672B1, “Tyrosine kinase inhibitor compositions, methods of making and methods of use” (Black Diamond Therapeutics, Inc., priority 2018, dated 2021)
